How the values were obtained:
[1] = molecular target: T1, recombinant human KDM4A (Homo sapiens, UniProt O75164); test: 14CO2 capture enzymatic assay (decarboxylation of [1-14C] αKG), KDM4A; type: biochemical; details: 10 μM [1-14C] αKG, 90 μM non-labeled αKG, 50 μM peptide substrate, 37° C., 1 hour, final 1% DMSO
T1 construct: made in house
T1 sequence (O75164 1-359 limits assumed): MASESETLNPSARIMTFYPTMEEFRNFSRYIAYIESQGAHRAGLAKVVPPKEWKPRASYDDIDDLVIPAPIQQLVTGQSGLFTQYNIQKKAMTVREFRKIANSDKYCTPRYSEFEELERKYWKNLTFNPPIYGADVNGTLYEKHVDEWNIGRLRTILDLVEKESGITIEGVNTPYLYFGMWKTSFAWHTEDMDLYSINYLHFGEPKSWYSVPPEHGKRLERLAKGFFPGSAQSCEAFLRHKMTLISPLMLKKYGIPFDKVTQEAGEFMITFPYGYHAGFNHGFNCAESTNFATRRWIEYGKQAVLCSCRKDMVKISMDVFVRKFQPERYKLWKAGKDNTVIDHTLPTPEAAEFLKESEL
Experimental: (§1) Enzymatic activity was determined based on the capture of ^14CO2 released by the decarboxylation of [1-^14C] αKG (Zhang et al., Anal. Biochem., 1998, vol. 271, pp. 137-142). [1-^14C]alphaketoglutarate (αKG) was from Perkin-Elmer, H3K4me3 and H3K9me3 peptides were from Mimotopes. All other reagents were from Sigma. Reaction mixtures included the following components: Fe(SO4), [1-^14C] αKG, non-labeled αKG, ascorbate, peptide-substrate (H3K4me3: H-ARTK(me3)QTARKSTGGKAPRKQLA-OH. H3K9me3: H-ARTKQTARK(me3)STGGKAPRKQLA-OH), NaCl, Tween-20 and catalase in 25 mM HEPES buffer, pH 7.4. The enzymatic reactions were initiated by addition of recombinant human KDM5B or KDM4A enzyme (truncated enzyme produced in house by method and using sequence disclosed in Ng et al, Nature 448:87-91, 2007). The reactions were performed in 96-well microtiter plates (20 μL total assay volume) (Greiner #650201). ^14CO2 was captured on a glass fiber filter paper (Cat. No. IH-201-A, Inotech Biosystems International) soaked with saturated Ba(OH)2 that was laid on top of the 96-well plate. A microtiter plate sealer film (Thermal Seal cat #T7961100) was applied to the filter paper. The plate and filter paper were sandwiched between two custom made aluminum plates (Advanced Component Manufacturing, Burlingame, CA) and transferred to a 37° C. oven and allowed to incubate for 1 hour. After incubation, the filter paper was dried in a 103° C. oven for 40-60 minutes. To determine percent turnover, aliquots of the reaction mixture were spotted onto the filter paper and the filter paper was dried again. The dry filter paper was exposed to a storage phosphor screen for 24-72 hours and the images recorded using a Typhoon FLA 7000 Imager (Amersham Biosciences, Piscataway, NJ). Integrated spot intensities corresponding to control reactions lacking the enzyme were subtracted from integration results for enzyme containing reactions and data were converted to enzyme dependent percent ^14CO2 release. All enzymatic reactions were run in duplicates.
(§2) For IC50 determination, a 3-fold dilution series of compound was prepared and added to the reaction mixture (final 1% DMSO, v/v) prior to enzyme addition. The final reagent concentrations were: 10 μM Fe(SO4), 10 μM [1-^14C] αKG, 90 μM non-labeled αKG, 2 mM ascorbate, 50 μM peptide substrate, 75 mM NaCl, 0.01% Tween-20 and ˜2 units/μL catalase. IC50s were determined by non-linear fitting using Grafit version 7.0.

[2] = molecular target: T2, recombinant human KDM5B (Homo sapiens, UniProt Q9UGL1); test: 14CO2 capture enzymatic assay (decarboxylation of [1-14C] αKG), KDM5B; type: biochemical; details: 10 μM [1-14C] αKG, 90 μM non-labeled αKG, 50 μM peptide substrate, 37° C., 1 hour, final 1% DMSO
T2 sequence (Q9UGL1 374-755 limits assumed): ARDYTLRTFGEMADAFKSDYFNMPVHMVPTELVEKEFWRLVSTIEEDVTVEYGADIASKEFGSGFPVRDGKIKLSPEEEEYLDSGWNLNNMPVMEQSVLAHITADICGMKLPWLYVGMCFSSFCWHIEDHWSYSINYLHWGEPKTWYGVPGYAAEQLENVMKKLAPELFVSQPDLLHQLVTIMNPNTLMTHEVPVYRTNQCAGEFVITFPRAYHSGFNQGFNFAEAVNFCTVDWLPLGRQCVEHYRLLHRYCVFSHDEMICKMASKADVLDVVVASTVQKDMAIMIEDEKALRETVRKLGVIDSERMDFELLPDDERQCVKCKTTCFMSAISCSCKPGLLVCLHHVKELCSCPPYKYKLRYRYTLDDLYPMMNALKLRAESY
Experimental: as §1, §2

Structure (SMILES)	IC50 [1] [µM]	IC50 [2] [nM]
Cc1ccc(-c2cc(C#N)c(O)c(C(=O)CCC(=O)O)n2)c(Cl)c1 [Example 84, 4-[6-(2-Chloro-4-methyl-phenyl)-4-cyano-3-hydroxy-pyridin-2-yl]-4-oxo-butyric acid]	> 40	460
COc1ccc(Cc2cc(C#N)c(O)c(C(=O)CCC(=O)O)n2)cc1 [Example 27, 4-[4-Cyano-3-hydroxy-6-(4-methoxy-benzyl)-pyridin-2-yl]-4-oxo-butyric acid]	> 40	550
N#Cc1cc(C(F)(F)F)nc(C(=O)CCC(=O)O)c1O [Example 35, 4-(4-Cyano-3-hydroxy-6-trifluoromethyl-pyridin-2-yl)-4-oxo-butyric acid]	12	50
Cc1ccc(C(F)(F)F)cc1-c1cc(C#N)c(O)c(C(=O)CCC(=O)O)n1 [Example 97, 4-[4-Cyano-3-hydroxy-6-(2-methyl-5-trifluoromethyl-phenyl)-pyridin-2-yl]-4-oxo-butyric acid]	> 40	300
N#Cc1cc(Cc2ccc(Cl)cc2)nc(C(=O)CCC(=O)O)c1O [Example 17, 4-[6-(4-Chloro-benzyl)-4-cyano-3-hydroxy-pyridin-2-yl]-4-oxo-butyric acid]	> 40	190
N#Cc1cc(-c2ccc(F)c3ccccc23)nc(C(=O)CCC(=O)O)c1O [Example 109, 4-[4-Cyano-6-(4-fluoro-naphthalen-1-yl)-3-hydroxy-pyridin-2-yl]-4-oxo-butyric acid]	> 40	250
N#Cc1cc(Cc2c(F)cccc2F)nc(C(=O)CCC(=O)O)c1O [Example 53, 4-[4-Cyano-6-(2,6-difluoro-benzyl)-3-hydroxy-pyridin-2-yl]-4-oxo-butyric acid]	> 40	250
Cc1c(-c2cc(C#N)c(O)c(C(=O)CCC(=O)O)n2)cccc1C(F)(F)F [Example 95, 4-[4-Cyano-3-hydroxy-6-(2-methyl-3-trifluoromethyl-phenyl)-pyridin-2-yl]-4-oxo-butyric acid]	> 40	350
N#Cc1cc(Cc2ccccc2OC(F)(F)F)nc(C(=O)CCC(=O)O)c1O [Example 49, 4-[4-Cyano-3-hydroxy-6-(2-trifluoromethoxy-benzyl)-pyridin-2-yl]-4-oxo-butyric acid]	> 40	270
N#Cc1cc(Cc2cccc(Cl)c2)nc(C(=O)CCC(=O)O)c1O [Example 18, 4-[6-(3-Chloro-benzyl)-4-cyano-3-hydroxy-pyridin-2-yl]-4-oxo-butyric acid]	> 40	100
Cc1ccc(-c2cc(C#N)c(O)c(C(=O)CCC(=O)O)n2)c2ccccc12 [Example 113, 4-[4-Cyano-3-hydroxy-6-(4-methyl-naphthalen-1-yl)-pyridin-2-yl]-4-oxo-butyric acid]	> 40	230
N#Cc1cc(-c2cccc(-c3ccccc3)c2)nc(C(=O)CCC(=O)O)c1O [Example 74, 4-(6-Biphenyl-3-yl-4-cyano-3-hydroxy-pyridin-2-yl)-4-oxo-butyric acid]	> 40	60
N#Cc1cc(Cc2ccc(C(F)(F)F)cc2)nc(C(=O)CCC(=O)O)c1O [Example 39, 4-[4-Cyano-3-hydroxy-6-(4-trifluoromethyl-benzyl)-pyridin-2-yl]-4-oxo-butyric acid]	> 40	130
N#Cc1cc(-c2cccc(F)c2)nc(C(=O)CCC(=O)O)c1O [Example 20, 4-[4-Cyano-6-(3-fluoro-phenyl)-3-hydroxy-pyridin-2-yl]-4-oxo-butyric acid]	> 40	170
N#Cc1cc(Cc2ccccc2C(F)(F)F)nc(C(=O)CCC(=O)O)c1O [Example 41, 4-[4-Cyano-3-hydroxy-6-(2-trifluoromethyl-benzyl)-pyridin-2-yl]-4-oxo-butyric acid]	22	150

Second part, the compound after the results:

IC50 [1] [µM]	IC50 [2] [nM]	Structure (SMILES)
> 40	50	N#Cc1cc(Cc2c(Cl)cc(Cl)cc2Cl)cc(C(=O)CCC(=O)O)c1O [Example 131, 4-[3-Cyano-2-hydroxy-5-(2,4,6-trichloro-benzyl)-phenyl]-4-oxo-butyric acid]
> 40	80	N#Cc1cc(Cc2c(Cl)cccc2Cl)cc(C(=O)CCC(=O)O)c1O [Example 121, 4-[3-Cyano-5-(2,6-dichloro-benzyl)-2-hydroxy-phenyl]-4-oxo-butyric acid]
> 40	160	COc1cc(Cl)c(Cc2cc(C#N)c(O)c(C(=O)CCC(=O)O)n2)c(Cl)c1 [Example 147, 4-[4-Cyano-6-(2,6-dichloro-4-methoxy-benzyl)-3-hydroxy-pyridin-2-yl]-4-oxo-butyric acid]
17	320	Cc1cc(C#N)cc(C)c1Cc1cc(C#N)c(O)c(C(=O)CCC(=O)O)n1 [Example 153, 4-[4-Cyano-6-(4-cyano-2,6-dimethyl-benzyl)-3-hydroxy-pyridin-2-yl]-4-oxo-butyric acid]
3	120	Cc1cccc(Cl)c1Cc1cc(C#N)c(O)c(C(=O)CCC(=O)O)n1 [Example 123, 4-[6-(2-Chloro-6-methyl-benzyl)-4-cyano-3-hydroxy-pyridin-2-yl]-4-oxo-butyric acid]
11	70	N#Cc1cc(Cc2c(Cl)ccc(Cl)c2Cl)nc(C(=O)CCC(=O)O)c1O [Example 156, 4-[4-Cyano-3-hydroxy-6-(2,3,6-trichloro-benzyl)-pyridin-2-yl]-4-oxo-butyric acid]
> 40	80	N#Cc1cc(NC(=O)c2ccccc2)nc(C(=O)CCC(=O)O)c1O [Example 158, 4-(6-Benzoylamino-4-cyano-3-hydroxy-pyridin-2-yl)-4-oxo-butyric acid]
> 40	820	N#Cc1cc(Oc2ccc(Cl)cc2)cc(C(=O)CCC(=O)O)c1O [Example 137, 4-[5-(4-Chloro-phenoxy)-3-cyano-2-hydroxy-phenyl]-4-oxo-butyric acid]
> 40	250	COc1ccc(Oc2cc(C#N)c(O)c(C(=O)CCC(=O)O)c2)cc1 [Example 141, 4-[3-Cyano-2-hydroxy-5-(4-methoxy-phenoxy)-phenyl]-4-oxo-butyric acid]
> 40	100	N#Cc1cc(-c2cccc3cccnc23)nc(C(=O)CCC(=O)O)c1O [Example 116, 4-(4-Cyano-3-hydroxy-6-quinolin-8-yl-pyridin-2-yl)-4-oxo-butyric acid]
> 40	230	N#Cc1cc(-c2ccc(C(F)(F)F)cc2Cl)nc(C(=O)CCC(=O)O)c1O [Example 115, 4-[6-(2-Chloro-4-trifluoromethyl-phenyl)-4-cyano-3-hydroxy-pyridin-2-yl]-4-oxo-butyric acid]
> 40	160	N#Cc1cc(-c2ccc(Cl)cc2)cc(C(=O)CCC(=O)O)c1O [Example 118, 4-(4′-Chloro-5-cyano-4-hydroxy-biphenyl-3-yl)-4-oxo-butyric acid]
> 40	330	Cc1ccccc1Oc1cc(C#N)c(O)c(C(=O)CCC(=O)O)c1 [Example 140, 4-(3-Cyano-2-hydroxy-5-o-tolyloxy-phenyl)-4-oxo-butyric acid]

From patent US20240002344A1, “COMPOUNDS, COMPOSITIONS AND METHODS FOR HISTONE LYSINE DEMETHYLASE INHIBITION” (FibroGen, Inc., priority 2020, published 2024)
